Data as given in patent US8268893B2, “Use of dapsone as a neuroprotector in cerebral infarction” (Universidad Autonoma Metropolitana, priority 2003, dated 2012).
“And” between values parts separate entries of the source, which are not always exact repeats. Equal values may be shown once.

Assays:
[1] = tested on: brain stroke model produced by occlusion of the middle cerebral artery; experiment: Neurological functional scale in rats after permanent occlusion of the middle cerebral artery; format: in vivo, rat
Method: Dapsone was evaluated as neuroprotector in the brain stroke model produced by occlusion of the middle cerebral artery. The drug was suspended in a suitable vehicle.
3 groups of 5 animals each were treated with: Saline isotonic solution (551, control group), Dapsone (12.5 mg/kg) and Dapsone (9.375 mg/kg) injected by intraperitoneal route, 30 minutes after the occlusion of the middle cerebral artery, as described below.
The permanent selective brain ischemic was produced in the animals through introducing a suture thread intraluminal through the carotid artery. All animals received continuous anesthesia during the surgical procedure with halotane 1.5%, through a face mask. […]
During the 96 hours after the ischemic procedure, the animals were neurologically evaluated using a functional scale, each 24 hours.
For the neurological scale and percentage of the lesion volume in rats, the statistical significance was determined with the Kruskal-Wallis test, followed by the U test of MannWhitney.
The results of the neurological evaluation in rats are shown in FIG. 1, where the scores of the neurological test as a function of time can be observed, after producing the stroke in the rats. The results are expressed as the average of 4 independent experiments. […]

[2] = tested on: patients with acute brain stroke for thrombo-embolism; experiment: Randomized, double-blind, placebo-controlled clinical trial in patients with acute brain stroke, NIH scale; format: in vivo, human
Method: This study evaluated the neuroprotector effect of dapsone in patients that, having suffered an acute brain stroke for thrombo-embolism, were admitted to the Emergency Services of the National Institute of Neurology and Neurosurgery “Manuel Velasco Suarez”. Dapsone was administered in a single dose of 200 mg in suspension, orally. […] Dapsone was administered blinded to 15 patients, while other 15 patients were administered with an anti-acid suspension, as a placebo medication. Patients were randomly allocated into one of the treatment groups, using random numbers, generated by a pocket calculator. Both medications were administered during the first twelve hours after the brain stroke. As result of these procedures, the clinical trial was randomized, double-blind and placebo-controlled. The evaluation of clinical signs and symptoms was performed in blind by an expert neurologist, with the NIH scale, that quantifies the intensity of disabilities caused by the brain stroke. Said scale was applied at the time the patient entered the study (day zero) and 2, 6 and 30 days after the brain stroke. A stroke is considered as moderately severe or severe, when the NIH rated a value higher than seven. The NIH scale results in the two groups of patients were statistically analyzed with analysis of variance analysis (ANOVA) using as co-variables the NIH scale at the admittance day (day zero), as well as the gender, age, blood pressure and other important clinical variables for the patient's performance. The results in patients with acute thrombo-embolic brain stroke, are shown in FIG. 3, which presents the scores of the neurological scale (NIH) as a function of time (in days) after administering dapsone or the placebo. The results are expressed as the average of 15 patients per group +/−the standard error.

[3] = Stability of dapsone oral suspension; format: physicochemical; details: refrigeration at 4° C.
[4] = tested on: brain stroke model produced by occlusion of the middle cerebral artery; experiment: Ischemic lesion volume (histology) in rats 96 hours after occlusion of the middle cerebral artery; format: in vivo, rat; details: for reduction of ischemic lesion volume in comparison with the control group: 96 hours
Method: Dapsone was evaluated as neuroprotector in the brain stroke model produced by occlusion of the middle cerebral artery. The drug was suspended in a suitable vehicle. 3 groups of 5 animals each were treated with: Saline isotonic solution (551, control group), Dapsone (12.5 mg/kg) and Dapsone (9.375 mg/kg) injected by intraperitoneal route, 30 minutes after the occlusion of the middle cerebral artery, as described below. The permanent selective brain ischemic was produced in the animals through introducing a suture thread intraluminal through the carotid artery. All animals received continuous anesthesia during the surgical procedure with halotane 1.5%, through a face mask. Animals were placed in dorsal decubitus position, fixed and shaved in the anterior cervical region to make an incision in the middle line from the sternum towards the region of the sternohiodeous muscle, to its side rim, identifying in this side the middle rim of the sternocleidomastoideus and the superficial cervical aponeurosis in its deep leaf, same that was cut to leave exposed the common carotid blow and inside the caudal belly of the digastric. A cutting dissection of the common carotid was performed, until the hypoglose loop. The carotid bifurcation was identified, external carotid and its occipital and thyroid branches, the two latter were joined with mono-filament of 8-0 as well as with electrocoagulation for its later cut. The internal carotid was dissected in a length of approximately 5 mm and at that time the pterigo-palatine artery was identified. A microchip was placed or it was joined with mono-filament 6-0. Once the flux was stopped through these artery affluent, the mono-filament nylon 3-0 was introduced towards the internal carotid artery, through the stub of the external carotid artery, for a length of 17 mm as of the bifurcation. The wound was closed, and the animal was left to recover, with water and food ad libitum. In all cases, ischemia was verified by macroscopic observation and for the position of the thread. At the end of the 96 hours of observation, animals were sacrificed with an overdose of sodium pentobarbital by intraperitoneal route, and their brains were extracted by craniectomy. Once extracted, the brains were fixed with anhydrous alcohol during two weeks. The usual histological process was performed, as well as sections of 10 μm, storing a section each 200 μm. […] The area of each tissue section was determined using a digital analysis system and a photographic amplifier. […] Each section was assessed for 3 determinations: A) total area, including ventriculus B) Ventricular area C) Ischemic area, according to the pathologist's review. […] The results are expressed as the average+/-standard error of 4 independent experiments.

In the case of `Nc1ccc(S(=O)(=O)c2ccc(N)cc2)cc1` [dapsone], the “reduction in the severity of the neurological symptoms in comparison with the control group” value [1] is reported as 50%, the “recovery from the ischemic lesion in the neurological test compared to the control group” value ([1]; 9.375 and 12.5 mg/kg ip, evaluated each 24 hours for 96 hours, p<0.05) is reported as “recovered better from the ischemic lesion, significantly” and the side effects ([2]; for the dose used) is reported as “No side effects”. The effective dose ([2]; model not stated, printed after the patient result) was 0.013 mmol/kg, the “clinical improvement (in words)” value ([2]; patients, 200 mg orally) was “significant clinical improvement” and the “clinical improvement of neurological symptoms (NIH scale), in average” value ([2]; patients, single 200 mg oral dose within first twelve hours after stroke) was 67%. The “stability of the suspension” value [3] was “stable in refrigeration at 4° C., for up to one month”, the “reduction of ischemic lesion volume in comparison with the control group” value ([4]; 9.375 mg/kg ip 30 minutes after occlusion) was 93% and the “reduction of ischemic lesion volume in comparison with the control group” value ([4]; 12.5 mg/kg ip 30 minutes after occlusion, 12.5 mg/kg) was 91% and 90%. For the same molecule, the “efficacy to reduce the volume of brain damage produced by the stroke” value ([4]; dose of 9.325 mg/kg) was 93%.
